Source: patent US12543734B2, “Herbicidal compositions comprising dimethenamid” (BASF SE, priority 2024, dated 2026)

Columns and labels:
Assay type in all cases: in vivo
[1] = test system: Digitaria sanguinalis (DIGSA); assay: Example 2 post-emergence field trial (1% MSO and AMS); conditions: height 2-8 cm, 18-21 DAT, A-1 25 g ai/ha, B-2 735 g ai/ha
Method: (§1) In the examples below, using the method of S. R. Colby (1967) “Calculating synergistic and antagonistic responses of herbicide combinations”, Weeds 15, p. 22ff., the value E, which is expected if the activity of the individual active compounds is only additive, was calculated:
(§2) [formula] • where • X=percent activity using active herbicide A at an application rate a; • Y=percent activity using active herbicide B (e.g. DMTA-p) at an application rate b; • E=expected activity (in %) by A+B at application rates a+b.
(§3) If the value found experimentally is higher than the value E calculated according to Colby, a synergistic effect is present.
(§4) On field test sites, natural weed infestation or seeded weeds were treated post-emergence of the weeds.
(§5) In the field trials, the weeds were treated as indicated below.
(§6) In the following experiments, the herbicidal activity for the individual herbicidal compositions (solo and mixture applications) was assessed at the indicated days after treatment (DAT). The assessments for the damage on undesired weeds caused by the composition was carried out using a scale from 0 to 100%, compared to the untreated control plants. Here, 0 means no damage and 100 means complete destruction of the plants.
(§7) Post-Emergence Application of Herbicide A-1 (A-1) and Dimethenamid-P (DMTA-p; B-2) in Field Trials
(§8) Herbicide A-1 (100 g/l) and DMTA-p (720 g/l) were, together with addition of 1% MSO (methylated sed oil) and AMS (ammonium sulfate) as adjuvant, formulated in water as distribution medium (water volume 200 l/ha) and sprayed with commercial flat fan nozzles.

[2] = test system: Portulaca oleracea (POROL); assay: as above; conditions: B-2 735 g ai/ha
Method: as §1, §2, §3, §4, §5, §6, §7, §8

[3] = test system: Abutilon theophrasti (ABUTH); assay: as above; conditions: height 10-20 cm, 21-24 DAT, A-1 12.5 g ai/ha, B-2 735 g ai/ha
Method: as §1, §2, §3, §4, §5, §6, §7, §8

[4] = test system: Amaranthus retroflexus (AMARE); assay: as above; conditions: B-2 735 g ai/ha
Method: as §1, §2, §3, §4, §5, §6, §7, §8

[5] = test system: Amaranthus tamariscinus (AMATA); assay: as above; conditions: B-2 735 g ai/ha
Method: as §1, §2, §3, §4, §5, §6, §7, §8

[6] = test system: Amaranthus palmeri (AMAPA); assay: as above; conditions: B-2 735 g ai/ha
Method: as §1, §2, §3, §4, §5, §6, §7, §8

[7] = test system: Echinochloa crus-galli (ECHCG); assay: as above; conditions: height 7-15 cm, 18-21 DAT, B-2 735 g ai/ha
Method: as §1, §2, §3, §4, §5, §6, §7, §8

[8] = test system: Chenopodium album (CHEAL); assay: as above; conditions: height 17-23 cm, 21-24 DAT, A-1 12.5 g ai/ha, B-2 735 g ai/ha
Method: as §1, §2, §3, §4, §5, §6, §7, §8

[9] = test system: Eleusine indica (ELEIN); assay: as above; conditions: B-2 735 g ai/ha
Method: as §1, §2, §3, §4, §5, §6, §7, §8

[10] = test system: Zea mays (ZEAMX); assay: Example 3 post-emergence field trial, volunteer crop plants (1% MSO); conditions: height 43-51 cm, 20 DAT, B-2 735 g ai/ha
Method: as §1, §2, §3, §4, §5, §6, §7
(§9) Herbicide A-1 (100 g/l) and DMTA-p (720 g/l) were, together with addition of 1% MSO (methylated sed oil) as adjuvant, formulated in water as distribution medium (water volume 200 l/ha) and sprayed with commercial flat fan nozzles.

[11] = test system: Glycine max (GLXMA); assay: as above; conditions: height 6-15 cm, 20 DAT, A-1 30 g ai/ha, B-2 735 g ai/ha
Method: as §1, §2, §3, §4, §5, §6, §7, §9

[12] = test system: Setaria viridis (SETVI); assay: Example 1 post-emergence field trial (1% MSO); conditions: height 7-13 cm, 20-21 DAT, A-1 20 g ai/ha, B-2 735 g ai/ha
Method: as §1, §2, §3, §4, §5, §6, §7, §9

[13] = test system: Digitaria sanguinalis (DIGSA); assay: Example 1 post-emergence field trial (1% MSO); conditions: height 2-13 cm, 20-21 DAT, A-1 20 g ai/ha, B-2 735 g ai/ha
Method: as §1, §2, §3, §4, §5, §6, §7, §9

[14] = test system: Amaranthus tamariscinus (AMATA); assay: Example 1 post-emergence field trial (1% MSO); conditions: height 20-25 cm, 20-21 DAT, A-1 20 g ai/ha, B-2 735 g ai/ha
Method: as §1, §2, §3, §4, §5, §6, §7, §9

[15] = test system: Sorghum bicolor (SORVU); assay: Example 1 post-emergence field trial (1% MSO); conditions: height 25-30 cm, 20-21 DAT, A-1 30 g ai/ha, B-2 735 g ai/ha
Method: as §1, §2, §3, §4, §5, §6, §7, §9

[16] = test system: Helanthus annuus (HELAN); assay: Example 1 post-emergence field trial (1% MSO); conditions: height 20-25 cm, 20-21 DAT, A-1 20 g ai/ha, B-2 735 g ai/ha
Method: as §1, §2, §3, §4, §5, §6, §7, §9

[17] = test system: Amaranthus palmeri (AMAPA); assay: Example 1 post-emergence field trial (1% MSO); conditions: 20-21 DAT, B-2 735 g ai/ha
Method: as §1, §2, §3, §4, §5, §6, §7, §9

[18] = test system: Echinochloa crus-galli (ECHCG); assay: Example 1 post-emergence field trial (1% MSO); conditions: height 10-15 cm, 20-21 DAT, B-2 735 g ai/ha
Method: as §1, §2, §3, §4, §5, §6, §7, §9

[19] = test system: Setaria faberi (SETFA); assay: Example 1 post-emergence field trial (1% MSO); conditions: height 7-13 cm, 20-21 DAT, A-1 20 g ai/ha, B-2 735 g ai/ha
Method: as §1, §2, §3, §4, §5, §6, §7, §9

[20] = test system: Sorghum bicolor (SORVU); assay: Example 4 post-emergence field trial (1% MSO and AMS); conditions: height 15-20 cm, 20 DAT, A-1 12.5 g ai/ha, B-2 735 g ai/ha
Method: as §1, §2, §3, §4, §5, §6, §7, §8

[21] = test system: Helanthus annuus (HELAN); assay: as above; conditions: height 10-20 cm, 20 DAT, A-1 12.5 g ai/ha, B-2 735 g ai/ha
Method: as §1, §2, §3, §4, §5, §6, §7, §8

[22] = test system: Zea mays (ZEAMX); assay: as above; conditions: 21-24 DAT, B-2 735 g ai/ha
Method: as §1, §2, §3, §4, §5, §6, §7, §8

[23] = test system: Glycine max (GLXMA); assay: as above; conditions: 21-24 DAT, A-1 12.5 g ai/ha, B-2 735 g ai/ha
Method: as §1, §2, §3, §4, §5, §6, §7, §8

[24] = test system: Eleusine indica (ELEIN); assay: as above; conditions: height 15-20 cm, 21-24 DAT, A-1 12.5 g ai/ha, B-2 735 g ai/ha
Method: as §1, §2, §3, §4, §5, §6, §7, §8

[25] = height 2-13 cm, 18-21 DAT, A-1 25 g ai/ha
[26] = height 10-20 cm, 21-24 DAT, A-1 12.5 g ai/ha
[27] = height 10-20 cm, 21-24 DAT, A-1 25 g ai/ha
[28] = height 7-15 cm, 18-21 DAT, A-1 25 g ai/ha
[29] = height 17-28 cm, 21-24 DAT, A-1 12.5 g ai/ha
[30] = height 5-13 cm, 18-21 DAT, A-1 12.5 g ai/ha
[31] = height 7-15 cm, 18-21 DAT, A-1 12.5 g ai/ha
[32] = height 20-25 cm, 21-24 DAT, A-1 12.5 g ai/ha
[33] = height 7-10 cm, 18-21 DAT, A-1 12.5 g ai/ha
[34] = height 7-10 cm, 18-21 DAT, A-1 25 g ai/ha
[35] = height 15-20 cm, 21-24 DAT, A-1 25 g ai/ha
[36] = height 10-18 cm, A-1 20 g ai/ha
[37] = height 10-18 cm, A-1 30 g ai/ha

CCOC(=O)COc1ccccc1Oc1nc(-n2c(=O)cc(C(F)(F)F)n(C)c2=O)c(F)cc1Cl [A-1, ethyl 2-[2-[[3-chloro-5-fluoro-6-[3-methyl-2,6-dioxo-4-(trifluoromethyl)pyrimidin-1-yl]-2-pyridyl]oxy]phenoxy]acetate]
% herbicidal activity [1]: 97%
% herbicidal activity [2, 25]: 93%
% herbicidal activity [2, 26]: 80%
% herbicidal activity [2, 27]: 87%
% herbicidal activity [3]: 98%
% herbicidal activity [4, 28]: 85%
% herbicidal activity [4, 27]: 82%
% herbicidal activity [4, 29]: 67%
% herbicidal activity [5, 30]: 90%
% herbicidal activity [5, 28]: 85%
% herbicidal activity [5, 27]: 77%
% herbicidal activity [5, 29]: 67%
% herbicidal activity [6, 31]: 42%
% herbicidal activity [6, 28]: 64%
% herbicidal activity [6, 32]: 74%
% herbicidal activity ([7]; A-1 12.5 g ai/ha): 82%
% herbicidal activity ([7]; A-1 25 g ai/ha): 85%
% herbicidal activity [8]: 77%
% herbicidal activity [9, 33]: 18%
% herbicidal activity [9, 34]: 78%
% herbicidal activity [9, 35]: 55%
% herbicidal activity ([10]; A-1 20 g ai/ha): 72%
% herbicidal activity ([10]; A-1 30 g ai/ha): 88%
% herbicidal activity [11]: 98%
% herbicidal activity [12]: 97%
% herbicidal activity [13]: 97%
% herbicidal activity [14]: 70%
% herbicidal activity [15]: 93%
% herbicidal activity [16]: 99%
% herbicidal activity ([17]; height 2-12 cm, A-1 20 g ai/ha): 99%
% herbicidal activity ([17]; height 2-12 cm, A-1 30 g ai/ha): 99%
% herbicidal activity [17, 36]: 77%
% herbicidal activity [17, 37]: 80%
% herbicidal activity ([18]; A-1 20 g ai/ha): 77%
% herbicidal activity ([18]; A-1 30 g ai/ha): 80%
% herbicidal activity [19]: 97%
% herbicidal activity [20]: 87%
% herbicidal activity [21]: 93%
% herbicidal activity ([22]; A-1 12.5 g ai/ha): 67%
% herbicidal activity ([22]; A-1 25 g ai/ha): 83%
% herbicidal activity [23]: 90%
% herbicidal activity [24]: 27%

COC[C@H](C)N(C(=O)CCl)c1c(C)csc1C [B-2, dimethenamid-P]
% herbicidal activity [1]: 5%
% herbicidal activity [2, 25]: 7%
% herbicidal activity [2, 26]: 28%
% herbicidal activity [2, 27]: 28%
% herbicidal activity [3]: 35%
% herbicidal activity [4, 28]: 0%
% herbicidal activity [4, 27]: 47%
% herbicidal activity [4, 29]: 0%
% herbicidal activity [5, 30]: 15%
% herbicidal activity [5, 28]: 0%
% herbicidal activity [5, 27]: 47%
% herbicidal activity [5, 29]: 0%
% herbicidal activity [6, 31]: 0%
% herbicidal activity [6, 28]: 0%
% herbicidal activity [6, 32]: 0%
% herbicidal activity ([7]; A-1 12.5 g ai/ha): 0%
% herbicidal activity ([7]; A-1 25 g ai/ha): 0%
% herbicidal activity [8]: 0%
% herbicidal activity [9, 33]: 0%
% herbicidal activity [9, 34]: 0%
% herbicidal activity [9, 35]: 0%
% herbicidal activity ([10]; A-1 20 g ai/ha): 0%
% herbicidal activity ([10]; A-1 30 g ai/ha): 0%
% herbicidal activity [11]: 0%
% herbicidal activity [12]: 0%
% herbicidal activity [13]: 0%
% herbicidal activity [14]: 0%
% herbicidal activity [15]: 0%
% herbicidal activity [16]: 0%
% herbicidal activity ([17]; height 2-12 cm, A-1 20 g ai/ha): 37%
% herbicidal activity ([17]; height 2-12 cm, A-1 30 g ai/ha): 37%
% herbicidal activity [17, 36]: 0%
% herbicidal activity [17, 37]: 0%
% herbicidal activity ([18]; A-1 20 g ai/ha): 0%
% herbicidal activity ([18]; A-1 30 g ai/ha): 0%
% herbicidal activity [19]: 0%
% herbicidal activity [20]: 0%
% herbicidal activity [21]: 0%
% herbicidal activity ([22]; A-1 12.5 g ai/ha): 0%
% herbicidal activity ([22]; A-1 25 g ai/ha): 0%
% herbicidal activity [23]: 0%
% herbicidal activity [24]: 0%
